Laboratory results published in patent US20230414476A1, “TETRAPEPTIDE AND COMPOSITIONS COMPRISING TETRAPEPTIDES” (THE BOOTS COMPANY, priority 2020, published 2023).

What was measured:
[1] = tested on: Fibronectin; assay: ELISA of fibronectin in culture supernatant of human dermal fibroblasts; assay type: cell-based; details: normal human dermal fibroblasts, 72 hours, weighted to viable cells
Method: (§1) An ELISA is an immunological assay commonly used to measure presence and abundance of a specific proteins (antibodies, antigens, proteins and glycoproteins) in biological samples. In this case ELISAs are being used to quantify the expression of dermal extracellular proteins collagen-1, decorin, fibronectin and collagen IV. The quantity of collagen I is evaluated via the quantity of PIP (“carboxU-terminal pro-peptide of procollagen type I”) which is a peptide fragment resulting from the enzymatic degradation of procollagen present outside the fibroblast in the culture supernatant medium.
(§2) Normal human dermal fibroblasts cells (HDFs) were cultured in contact with the tetrapeptides of the present invention, or composition without the peptide (negative control), for 72 hours. Thereafter the cultured supernatants were removed, and the quantity of dermal extracellular proteins determined using an ELISA assay for the protein of interest. For the ELISA quantification, cell viability was calculated using Hoechst staining allowing the quantity of dermal proteins to be weighted to the number of viable cells.
(§3) The effect of XXGD tetrapeptides on ECM protein expression by fibroblasts as measured by ELISA (columns 1 to 2) versus a tetrapeptide not conforming to the XXGD structure (column 3) are presented in the table below (table 1). Results are expressed as % increase or decrease versus the negative control.

[2] = tested on: Decorin; assay: ELISA of decorin in culture supernatant of human dermal fibroblasts; assay type: cell-based; details: normal human dermal fibroblasts, 72 hours, weighted to viable cells
Method: as §1, §2, §3

[3] = tested on: Collagen I (PIP); assay: ELISA of collagen I (via PIP) in culture supernatant of human dermal fibroblasts; assay type: cell-based; details: normal human dermal fibroblasts, 72 hours, weighted to viable cells
Method: as §1, §2
The quantity of collagen I is evaluated using the quantity of PIP (“carboxU-terminal pro-peptide of procollagen type I”) which is a peptide fragment resulting from the enzymatic degradation of procollagen present outside the fibroblast in the culture supernatant medium.
as §3

[4] = tested on: Collagen IV; assay: ELISA of collagen IV in culture supernatant of human dermal fibroblasts; assay type: cell-based; details: normal human dermal fibroblasts, 72 hours, weighted to viable cells
Method: as §1, §2, §3

[5] = tested on: Fibrillin-1; assay: Immunofluorescence of Fibrillin-1 expression by HDF cells; assay type: cell-based, human; details: primary HDF cells, 5 days
Method: Immunofluorescence relies on the use of antibodies to label a specific protein with a fluorescent dye such as fluorescein isothiocyanate (FITC). In the following experiments, indirect immunofluorescence is used where a primary antibody first recognises and attaches to the specific protein, in this case fibrillin-1, and then a secondary antibody conjugated with FITC directed against the primary antibody is used for detection.
Fibrillin-1 expression was determined using immunofluorescence. Primary human dermal fibroblast (HDF) cells were purchased from Promo Cell and came from a donor. Cells were grown in wells of 96 well black walled clear bottomed plates (Peirce, Thermo Fisher). Cells were cultured in HDF media (PromoCell) supplemented with Basic Fibroblast Growth Factor (recombinant human), 1 ng/ml and Insulin 5 μg/ml. […]
The antibody binding to Fibrillin-1 fibres was visualised using a Nikon Eclipse 100 microscope fluorescence setting using an excitation lens for fluorescein isothiocyanate (FITC). […] ImageJ software was used to quantify the Fibrillin-1 fibre abundance and coverage in each image using a threshold of 235 measuring the fibre density.
Results are expressed as a percentage increase in fibrillin abundance compared to untreated control. […]

Substance | Fibronectin expression, % increase or decrease versus the negative control ([1]; peptide 12.5 ppm) | Decorin expression, % increase or decrease versus the negative control ([2]; peptide 12.5 ppm) | Collagen I (PIP) expression, % increase or decrease versus the negative control ([3]; peptide 12.5 ppm) | Collagen IV expression, % increase or decrease versus the negative control ([4]; peptide 12.5 ppm) | Fibronectin expression, % increase or decrease versus the negative control ([1]; peptide 15 ppm) | Decorin expression, % increase or decrease versus the negative control ([2]; peptide 15 ppm) | Collagen I (PIP) expression, % increase or decrease versus the negative control ([3]; peptide 15 ppm) | Collagen IV expression, % increase or decrease versus the negative control ([4]; peptide 15 ppm) | Fibrillin-1, percentage increase in fibrillin abundance compared to untreated control ([5]; peptide 10 ppm (concentration with highest yield)) | Fibrillin-1, percentage increase in fibrillin abundance compared to untreated control ([5]; peptide 4 ppm (concentration with highest yield))
Pal-EKGD-OH | +114% | +43% | +101% | +73% |  |  |  |  |  | 
Pal-GYIL-OH [reference compound] |  |  |  |  | −38% | −13% | +18% | +6% | +3% | 
Pal-AKGD-OH |  |  |  |  | +112% | +39% | +26% | +40% |  | +116%
